Data: PubChem BioAssay AID1259407 (Chemical Carcinogenesis Research Information System (CCRIS), 2018)
Active and inactive are the calls of the source. No rule for the calls is given here.

Test system: CCRIS mutagenicity, Ames/micronucleus/aberration tests
Assay: CCRIS mutagenicity studies
[1] = Test System: AMES SALMONELLA TYPHIMURIUM, Strain/Indicator: TA98, Metabolic Activation: NONE, Method: STANDARD PLATE
[2] = Test System: AMES SALMONELLA TYPHIMURIUM, Strain/Indicator: TA98, Metabolic Activation: RAT, LIVER, S-9, AROCLOR 1254, Method: STANDARD PLATE
[3] = Test System: AMES SALMONELLA TYPHIMURIUM, Strain/Indicator: TA100, Metabolic Activation: NONE, Method: STANDARD PLATE
[4] = Test System: AMES SALMONELLA TYPHIMURIUM, Strain/Indicator: TA100, Metabolic Activation: RAT, LIVER, S-9, AROCLOR 1254, Method: STANDARD PLATE
[5] = Test System: AMES SALMONELLA TYPHIMURIUM, Strain/Indicator: TA1538, Metabolic Activation: NONE, Method: STANDARD PLATE
[6] = Test System: AMES SALMONELLA TYPHIMURIUM, Strain/Indicator: TA1538, Metabolic Activation: RAT, LIVER, S-9, AROCLOR 1254, Method: STANDARD PLATE

O=[N+]([O-])c1cc2cc3ccc4cccc5ccc(c2o1)c3c45
mutagenic call (Test System: AMES SALMONELLA TYPHIMURIUM, Strain/Indicator: TA98(NR), Metabolic Activation: NONE, Method: STANDARD PLATE): active; positive | mutagenic call (Test System: AMES SALMONELLA TYPHIMURIUM, Strain/Indicator: TA98(NR), Metabolic Activation: RAT, LIVER, S-9, AROCLOR 1254, Method: STANDARD PLATE): active; positive | mutagenic call [1]: active; positive | mutagenic call [2]: active; positive

CCCCCCCCCCCC[N+](C)(C)COCCCCCCCCC
mutagenic call (Test System: BACILLUS SUBTILIS, Strain/Indicator: H17/REC, Metabolic Activation: NONE, Method: STANDARD PLATE): inactive; negative | mutagenic call (Test System: BACILLUS SUBTILIS, Strain/Indicator: M45, Metabolic Activation: NONE, Method: STANDARD PLATE): inactive; negative

NC(=O)N(CCCl)N=O
mutagenic call (Test System: CHINESE HAMSTER V-79, Strain/Indicator: V-79/6-THIOGUANINE, Metabolic Activation: NONE, Method: STANDARD PLATE): active; positive | mutagenic call (Test System: E. COLI B, Strain/Indicator: H/R30R, Metabolic Activation: NONE): active; positive | mutagenic call (Test System: E. COLI B, Strain/Indicator: HS30R, Metabolic Activation: NONE): active; positive

Cc1cc2nc3c(=O)[nH]c(=O)nc-3n(C[C@H](O)[C@H](O)[C@H](O)CO)c2cc1C
mutagenic call (End Point: IN VIVO MICRONUCLEUS, Test System: BONE MARROW POLYCHROMATIC ERYTHROCYTES, Species: MOUSE, Strain/Sex: DDY/MALE, Route: IP): inactive; negative | mutagenic call (Test System: AMES SALMONELLA TYPHIMURIUM, Strain/Indicator: TA97A, Metabolic Activation: NONE, Method: PREINCUBATION): inactive; negative | mutagenic call (Test System: AMES SALMONELLA TYPHIMURIUM, Strain/Indicator: TA97A, Metabolic Activation: RAT, CECAL CELL-FREE EXTRACT, Method: PREINCUBATION): inactive; negative | mutagenic call (Test System: AMES SALMONELLA TYPHIMURIUM, Strain/Indicator: TA97A, Metabolic Activation: RAT, LIVER, S9, AROCLOR 1254, Method: PREINCUBATION): inactive; negative | mutagenic call (Test System: AMES SALMONELLA TYPHIMURIUM, Strain/Indicator: TA98, Metabolic Activation: NONE, Method: PREINCUBATION): inactive; negative | mutagenic call (Test System: AMES SALMONELLA TYPHIMURIUM, Strain/Indicator: TA98, Metabolic Activation: RAT, CECAL CELL-FREE EXTRACT, Method: PREINCUBATION): inactive; negative | mutagenic call (Test System: AMES SALMONELLA TYPHIMURIUM, Strain/Indicator: TA98, Metabolic Activation: RAT, LIVER, S9, AROCLOR 1254, Method: PREINCUBATION): inactive; negative | mutagenic call (Test System: AMES SALMONELLA TYPHIMURIUM, Strain/Indicator: TA100, Metabolic Activation: NONE, Method: PREINCUBATION): inactive; negative | mutagenic call (Test System: AMES SALMONELLA TYPHIMURIUM, Strain/Indicator: TA100, Metabolic Activation: RAT, CECAL CELL-FREE EXTRACT, Method: PREINCUBATION): inactive; negative | mutagenic call (Test System: AMES SALMONELLA TYPHIMURIUM, Strain/Indicator: TA100, Metabolic Activation: RAT, LIVER, S9, AROCLOR 1254, Method: PREINCUBATION): inactive; negative | mutagenic call (Test System: AMES SALMONELLA TYPHIMURIUM, Strain/Indicator: TA102, Metabolic Activation: RAT, LIVER, S9, AROCLOR 1254, Method: PREINCUBATION): inactive; negative

COc1cc(N=Nc2ccc(N(CCO)CCO)cc2)ccc1N=Nc1c(S(=O)(=O)O)cc2ccc(N)cc2c1O
mutagenic call [1]: inactive; negative | mutagenic call [2]: active; positive | mutagenic call [3]: inactive; negative | mutagenic call [4]: inactive; negative | mutagenic call [5]: inactive; negative | mutagenic call [6]: active; positive

COc1cc(O)c2c(=O)c(O)c(-c3ccc(O)c(O)c3)oc2c1
mutagenic call (Test System: AMES SALMONELLA TYPHIMURIUM, Strain/Indicator: TA97, Metabolic Activation: NONE, Method: STANDARD PLATE): inactive; negative | mutagenic call (Test System: AMES SALMONELLA TYPHIMURIUM, Strain/Indicator: TA97, Metabolic Activation: RAT, LIVER, S-9, AROCLOR 1254, Method: STANDARD PLATE): active; positive | mutagenic call [1]: inactive; negative | mutagenic call [2]: active; positive | mutagenic call [3]: inactive; negative | mutagenic call [4]: inactive; negative | mutagenic call (Test System: AMES SALMONELLA TYPHIMURIUM, Strain/Indicator: TA102, Metabolic Activation: NONE, Method: STANDARD PLATE): inactive; negative | mutagenic call (Test System: AMES SALMONELLA TYPHIMURIUM, Strain/Indicator: TA102, Metabolic Activation: RAT, LIVER, S-9, AROCLOR 1254, Method: STANDARD PLATE): inactive; negative | mutagenic call (Test System: AMES SALMONELLA TYPHIMURIUM, Strain/Indicator: TA1535, Metabolic Activation: NONE, Method: STANDARD PLATE): inactive; negative | mutagenic call (Test System: AMES SALMONELLA TYPHIMURIUM, Strain/Indicator: TA1535, Metabolic Activation: RAT, LIVER, S-9, AROCLOR 1254, Method: STANDARD PLATE): inactive; negative | mutagenic call [5]: inactive; negative | mutagenic call [6]: inactive; negative

O[C@H]1C=Cc2c(ccc3c(Cl)c4ccccc4cc23)[C@@H]1O
mutagenic call (Test System: AMES SALMONELLA TYPHIMURIUM, Strain/Indicator: TA100, Metabolic Activation: RAT, LIVER, S-9, PCB, Method: STANDARD PLATE): active; positive
